The target in the assay is T1, recombinant murine JAK3 (Mus musculus, UniProt Q62137).
T1 sequence (Q62137 1-1100): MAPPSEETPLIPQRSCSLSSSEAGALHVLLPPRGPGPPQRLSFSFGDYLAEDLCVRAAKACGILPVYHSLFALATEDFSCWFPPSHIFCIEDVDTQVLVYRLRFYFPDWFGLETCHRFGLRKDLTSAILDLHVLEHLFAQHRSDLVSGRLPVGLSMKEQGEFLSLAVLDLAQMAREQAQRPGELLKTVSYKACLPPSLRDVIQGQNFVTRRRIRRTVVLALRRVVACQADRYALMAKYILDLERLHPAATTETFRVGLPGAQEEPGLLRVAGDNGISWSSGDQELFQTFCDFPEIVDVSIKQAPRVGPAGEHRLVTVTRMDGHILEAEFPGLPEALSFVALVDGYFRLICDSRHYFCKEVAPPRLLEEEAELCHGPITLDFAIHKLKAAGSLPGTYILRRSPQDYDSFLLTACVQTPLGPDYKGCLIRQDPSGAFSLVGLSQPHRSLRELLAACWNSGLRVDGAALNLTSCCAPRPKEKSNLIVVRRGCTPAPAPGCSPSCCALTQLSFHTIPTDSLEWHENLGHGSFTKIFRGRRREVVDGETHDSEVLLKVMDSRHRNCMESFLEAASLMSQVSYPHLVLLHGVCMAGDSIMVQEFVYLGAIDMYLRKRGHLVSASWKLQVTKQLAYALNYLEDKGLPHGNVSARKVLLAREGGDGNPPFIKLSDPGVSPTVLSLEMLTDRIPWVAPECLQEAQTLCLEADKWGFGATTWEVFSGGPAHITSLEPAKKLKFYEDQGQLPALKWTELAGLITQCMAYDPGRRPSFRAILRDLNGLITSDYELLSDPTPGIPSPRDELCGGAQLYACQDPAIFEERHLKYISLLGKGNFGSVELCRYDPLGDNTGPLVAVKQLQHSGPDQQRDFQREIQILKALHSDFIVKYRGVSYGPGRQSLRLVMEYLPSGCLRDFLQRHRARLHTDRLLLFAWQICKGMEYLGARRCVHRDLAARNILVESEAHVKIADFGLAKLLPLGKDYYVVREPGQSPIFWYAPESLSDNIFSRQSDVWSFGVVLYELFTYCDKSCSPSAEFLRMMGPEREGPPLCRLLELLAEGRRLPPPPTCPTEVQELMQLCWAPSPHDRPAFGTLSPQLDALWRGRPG
The assay is described as follows: Recombinant JAK3 immune complex kinase assay (baculovirus, Sf21). It counts as biochemical. The procedure: Sf21 (IPLB-SF21-AE) cells (Vassilev, A., et al., J. Biol. Chem. 274: 1646-1656, 1999) derived from the ovarian tissue of the fall armyworm Spodotera frugiperda, were obtained from Invitrogen (Carlsbad, Calif.) and maintained at 26-28° C. in Grace's insect cell medium supplemented with 10% FBS and 1.0% antibiotic/antimycotic (GIBCO-BRL). Stock cells were maintained in suspension at 0.2-1.6×10^6/ml in 600 ml total culture volume in 1 L Bellco spinner flasks at 60-90 rpm. Cell viability was maintained at 95-100% as determined by trypan blue dye exclusion. Sf21 cells were infected with a baculovirus expression vector for BTK, SYK, JAK1, JAK2, or JAK3. Cells were harvested, lysed (10 MM Tris pH7.6, 100 mM NaCl, 1% Nonidet P40, 10% glycerol, 50 mM NaF, 100 μM Na3VO4, 50 μg/ml phenylmethylsulfonyl fluoride, 10 μg/ml aprotonin, 10 μg/ml leupeptin), the kinases were immunoprecipitated from the lysates, and their enzymatic activity assayed, as reported (Vassilev, A., et al., J. Biol. Chem. 274: 1646-1656, 1999; Uckun, F. M., et al., Science. 22: 1096-1100, 1996; Goodman, P. A., et al., J. Biol. Chem. 273: 17742-48, 1998; Mahajan, S., et al., Mol. Cell. Biol. 15: 5304-11, 1995; and Uckun, F. M., et al., Science. 267: 886-91, 1995). The immunoprecipitates were subjected to Western blot analysis as previously described (Vassilev, A., et al., J. Biol. Chem. 274: 1646-1656, 1999; and Uckun, F. M., et al., Science. 22: 1096-1100, 1996).
In JAK3 immune complex kinase assays (17, 22), KL-2 EBV-transformed human lymphoblastoid B cells (native JAK3 kinase assays) or insect ovary cells (recombinant JAK3 kinase assays) were lysed with NP-40 lysis buffer (50 mM Tris, pH 8, 150 mM NaCl, 5 mM EDTA, 1% NP-40, 100 μM sodium orthovanadate, 100 μM sodium molybdate, 8 μg/ml aprotinin, 5 μg/ml leupeptin, and 500 μM PMSF) and centrifuged 10 min at 13000× g to remove insoluble material. Samples were immunoprecipitated with antisera prepared against JAK3. The antisera were diluted and immune complexes collected by incubation with 15 μl protein A Sepharose. After 4 washes with NP-40 lysis buffer, the protein A Sepharose beads were washed once in kinase buffer (20 mM MOPS, pH7, 10 mM MgCl2) and resuspended in the same buffer. Reactions were initiated by the addition of 25 μCi [γ^32P] ATP (5000 Ci/mMole) and unlabeled ATP to a final concentration of 5 μM. Reactions were terminated by boiling for 4 min in SDS sample buffer. Samples were run on 9.5% SDS polyacrylamide gels and labeled proteins were detected by autoradiography. […] For each drug concentration, a kinase activity index (KA) was determined by comparing the kinase activity in phosphorimager units (PIU) to that of the baseline sample. […]

For orientation: IC50 means the point on the concentration scale where inhibition reaches its midpoint. For the compound `COc1cc2ncnc(Nc3ccc(O)cc3)c2cc1OC` [WHI-P131, 4-(4′-hydroxyl-phenyl)-amino-6,7-dimethoxyquinazoline], the concentration for half-maximal inhibition (IC50) (recombinant murine JAK3) is 78 µM and the concentration for half-maximal inhibition (IC50) (recombinant murine JAK3, converted from μg/ml) was ~78 µM.

The values above are taken from patent publication US6469013B2, “Therapeutic compounds” (Parker Hughes Institute, priority 1998, dated 2002).
